Data from US11739070B2, “C5A receptor modulators” (IDORSIA PHARMACEUTICALS LTD, priority 2018, dated 2023).

biological target: T1, C5AR1 (Homo sapiens, UniProt P21730); assay: hC5a DISCO IC50 assay (PathHunter beta-arrestin, antagonist mode); format: cell-based; conditions: CHO-K1 C5AR1 beta-arrestin cell line; antagonist vs 1-10 nM C5a agonist; geometric mean values; read-out: C5aR IC50
T1 construct: host or cells: CHO-K1
T1 sequence (P21730 1-350): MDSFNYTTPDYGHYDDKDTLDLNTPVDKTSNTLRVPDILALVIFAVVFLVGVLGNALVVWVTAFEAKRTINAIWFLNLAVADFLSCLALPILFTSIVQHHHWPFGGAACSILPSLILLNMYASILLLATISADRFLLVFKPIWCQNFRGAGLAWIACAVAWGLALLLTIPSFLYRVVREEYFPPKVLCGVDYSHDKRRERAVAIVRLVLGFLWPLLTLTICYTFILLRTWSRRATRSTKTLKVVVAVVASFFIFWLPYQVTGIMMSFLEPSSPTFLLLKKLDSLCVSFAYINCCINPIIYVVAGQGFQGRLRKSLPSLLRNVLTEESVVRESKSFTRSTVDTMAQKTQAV
Procedure, shortened: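 Antagonist added first, then 1-10 nM C5a agonist; cells incubated 1.5 h at 37 °C. Beta-arrestin signal developed with PathHunter detection reagent, 45 min at RT. IC50 in nmol/l from serial antagonist dilutions, reported as geometric mean of several measurements.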

| IC50 [nM] | SMILES |
| --- | --- |
| 4480 | COc1ccccc1Cn1c(=O)n([C@@H]2CCN(c3c(F)cccc3C#N)C2)c2ncnc(OC)c21 [Example 105, 3-Fluoro-2-{(R)-3-[6-methoxy-7-(2-methoxy-benzyl)-8-oxo-7,8-dihydro-purin-9-yl]-pyrrolidin-1-yl}-benzonitrile] |
| 227 | COc1cccc2c1n(Cc1ccccc1C(F)(F)F)c(=O)n2[C@@H]1CCN(c2c(F)cccc2CN(C)C)C1 [Example 106, 1-[(R)-1-(2-Dimethylaminomethyl-6-fluoro-phenyl)-pyrrolidin-3-yl]-4-methoxy-3-(2-trifluoromethyl-benzyl)-1,3-dihydro-benzoimidazol-2-one] |
| 1320 | COc1cccc2c1n(Cc1ccccc1C(F)(F)F)c(=O)n2[C@@H]1CCN(c2c(F)cccc2CN(C)CCO)C1 [Example 107, 1-[(R)-1-(2-Fluoro-6-{[(2-hydroxy-ethyl)-methyl-amino]-methyl}-phenyl)-pyrrolidin-3-yl]-4-methoxy-3-(2-trifluoromethyl-benzyl)-1,3-dihydro-benzoimidazol-2-one] |
| 360 | COc1cccc2c1n(Cc1ccccc1C(F)(F)F)c(=O)n2[C@@H]1CCN(c2c(F)cccc2CN2CCC2)C1 [Example 108, 1-[(R)-1-(2-Azetidin-1-ylmethyl-6-fluoro-phenyl)-pyrrolidin-3-yl]-4-methoxy-3-(2-trifluoromethyl-benzyl)-1,3-dihydro-benzoimidazol-2-one] |
| 61 | COc1ccccc1Cn1c(=O)n([C@@H]2CCN(c3c(F)cccc3C#N)C2)c2cccc(OC)c21 [Example 109, 3-Fluoro-2-{(R)-3-[4-methoxy-3-(2-methoxy-benzyl)-2-oxo-2,3-dihydro-benzoimidazol-1-yl]-pyrrolidin-1-yl}-benzonitrile] |

Second part, the molecule before the results:

| SMILES | IC50 [nM] |
| --- | --- |
| CNC(=O)c1cccc2c1n(Cc1ccccc1C(F)(F)F)c(=O)n2[C@@H]1CCN(c2c(F)cccc2C#N)C1 [Example 99, 1-[(R)-1-(2-Cyano-6-fluoro-phenyl)-pyrrolidin-3-yl]-2-oxo-3-(2-trifluoromethyl-benzyl)-2,3-dihydro-1H-benzoimidazole-4-carboxylic acid methylamide] | 391 |
| N#Cc1cccc(F)c1N1CC[C@@H](n2c(=O)n(Cc3ccccc3C(F)(F)F)c3c(C(N)=O)cccc32)C1 [Example 100, 1-[(R)-1-(2-Cyano-6-fluoro-phenyl)-pyrrolidin-3-yl]-2-oxo-3-(2-trifluoromethyl-benzyl)-2,3-dihydro-1H-benzoimidazole-4-carboxylic acid amide] | 1430 |
| CN(C)C(=O)c1cccc2c1n(Cc1ccccc1C(F)(F)F)c(=O)n2[C@@H]1CCN(c2c(F)cccc2C#N)C1 [Example 101, 1-[(R)-1-(2-Cyano-6-fluoro-phenyl)-pyrrolidin-3-yl]-2-oxo-3-(2-trifluoromethyl-benzyl)-2,3-dihydro-1H-benzoimidazole-4-carboxylic acid dimethylamide] | 1580 |
| N#Cc1cccc(F)c1N1CC[C@@H](n2c(=O)n(Cc3ccccc3C(F)(F)F)c3c(CO)cccc32)C1 [Example 102, 3-Fluoro-2-{(R)-3-[4-hydroxymethyl-2-oxo-3-(2-trifluoromethyl-benzyl)-2,3-dihydro-benzoimidazol-1-yl]-pyrrolidin-1-yl}-benzonitrile] | 759 |
| CNCc1cccc(F)c1N1CC[C@@H](n2c(=O)n(Cc3ccccc3C(F)(F)F)c3c(OC)cccc32)C1 [Example 103, 1-[(R)-1-(2-Fluoro-6-methylaminomethyl-phenyl)-pyrrolidin-3-yl]-4-methoxy-3-(2-trifluoromethyl-benzyl)-1,3-dihydro-benzoimidazol-2-one] | 669 |
| COc1ncnc2c1n(Cc1ccccc1C(F)(F)F)c(=O)n2[C@@H]1CCN(c2c(F)cccc2C#N)C1 [Example 104, 3-Fluoro-2-{(R)-3-[6-methoxy-8-oxo-7-(2-trifluoromethyl-benzyl)-7,8-dihydro-purin-9-yl]-pyrrolidin-1-yl}-benzonitrile] | 863 |
